Earlier results on one compound are cited in PMC3176332 (European journal of medicinal chemistry, 2009).

For the series, the system named is ERβ. The note with it: relative to estradiol.

Each structure is given as a SMILES string.

Take `O=c1c(-c2ccc(O)cc2)coc2cc(O)cc(O)c12` [compound 2, genistein]: the ERβ binding selectivity is on record as 20 fold.
